# From patent publication US20140377289A1, “Metallodrugs Having Improved Pharmacological Properties, and Methods of Manufacture and Use Thereof” (MetalloPharm, LLC, priority 2011, published 2014)
# Where two headings read alike, the source gives them in different places.
# Tests used:
# [1] = tested on: HCV RNA replicon in ET (luc-ubi-neo/ET) Huh7 cells; conditions: read-out: antiviral IC50; 72 h, replicon-derived Luc activity
# [2] = tested on: ET (luc-ubi-neo/ET) Huh7 human hepatoma cell line; conditions: read-out: cytotoxicity TC50; 72 h, CytoTox-1 colorimetric assay
# S. aureus sortase A = S. aureus sortase A (Staphylococcus aureus, UniProt Q2FV99); type: biochemical; conditions: for activity for catalyst concentration of 1 μM: catalyst concentration 1 μM
# Description: Apparent binding affinities and rates of inactivation for S. aureus sortase A by several metallopeptide derivatives were evaluated. […]
# [3] = target: stem-loop IIb of HCV IRES RNA; type: binding, hepatitis C virus (HCV)
# Description: RNA was purchased from Dharmacon, part of Thermo Fisher Scientific (Lafayette, Colo.). Peptides were purchased from Genemed Synthesis Inc (South San Francisco, Calif.) with C-terminal amidation. The stem-loop (SL) structure (from Lytle et al., RNA 13: 539-48, 2002) is depicted in FIG. 6. The sequence for the IRES SL IIb RNA used was 5′-Fluorescein-[…]-3′, and for the IRES SL IV RNA was 5′-Fluorescein-[…]-3′. All RNA was annealed by heating to 95° C. and then cooled slowly to room temperature before use.
# RNA binding experiments were performed in the presence of 84 nM GGHYrFK-amide in 20 mM HEPES (pH 7.4), 100 mM NaCl. For GGHYrFK-amide, serial additions of unlabeled IRES RNA were added and tyrosine emission was monitored (λex=280 nm, λem=313 nm). Binding data for GGHYr[…]-amide and GGHYr[…]-amide were obtained by adding serial additions of peptide to 5′-fluorescein labeled IRES SLIIb and monitoring at 518 nm (Ex=485 nm). Data was then fit to a one-site binding model.
# [4] = tested on: stem loop IIb HCV IRES RNA; type: biochemical, hepatitis C virus (HCV)
# Description: HCV IRES RNA cleavage was monitored in vitro by fluorescence using 5′ fluorescein end-labeled RNA with excitation and emission wavelengths of 485 nm and 518 nm, respectively. Reactions were carried out in reaction volumes of 100 μl in the presence of 1 mM ascorbate and 1 mM H2O2 in 20 mM HEPES buffer (pH=7.4), 100 mM NaCl with 100 nM of the catalyst and analyzed according to the change in fluorescence observed as the reaction occurred. Both a time-dependence and a concentration-dependence of RNA substrate were observed. The initial velocities were fit to a line using Origin 7.0 software and kobs obtained. These values were then used to obtain the Michaelis-Menten parameters.
# The reactivity of select catalytic metallodrugs was investigated by Michaelis-Menten profiles. Reaction chemistry was followed by monitoring the fluorescence change of 5′-fluorescein-labeled RNA as a function of time. Initial velocities were measured as a function of substrate (RNA) concentration to generate a standard Michaelis-Menten plot (FIG. 2).
# HIV RRE RNA (AP-RRE RNA) = type: binding; conditions: for Kd: 37° C., pH 7.4
# Description: Determination of Dissociation Constants. […] A 660 μL volume of 100 nM AP-RRE RNA was first heated to 90° C. for 5 min and then allowed to cool to, but not below, the titration temperature (37° C.). A 650 μL volume of this sample was added to the pre-thermostatted cuvette. After 10 min of temperature equilibration a solution of 5 μM M-chelate-Rev complex was titrated into the solution. After each addition, 100 μL of the solution was mixed by gentle pipeting to ensure complete mixing. The fluorescence change associated with the change of environment of the aminopurine label was monitored following peptide binding. Titration response curves were dilution and background corrected and normalized to initial intensity values. Curves were fit to a biphasic equation (4) for two independent binding sites where Fobs is the total observed fluorescence intensity, P0 is the total concentration of added M-chelate-Rev, F0, F1, and F2 are fitting parameters corresponding to the intensities of the unbound, singly-bound, and doubly-bound AP-RNA, respectively, R0 is the initial concentration of AP-RNA, and KD1 and KD2 are dissociation constants for binding at the high- and low-affinity sites, respectively. All binding experiments were performed in a binding buffer composed of 20 mM HEPES, 100 mM NaCl, pH 7.4.
# [5] = tested on: 5′ fluorescein end-labeled RRE stem IIB RNA (Fl-RNA); experiment: PAGE analysis of RRE RNA cleavage kinetics; type: biochemical, HIV; conditions: 100 nM complex, 100 nM Fl-RNA, 1 mM H2O2, 1 mM ascorbate, 37° C.; initial rate
# Description: PAGE Analysis of RRE RNA Cleavage Kinetics. Reactions of 100 nM metal-chelate-Rev (1:1.2 M:chelate ratio), 1 mM H2O2, 1 mM ascorbate, and 100 nM 5′ fluorescein end-labeled RRE stem IIB RNA (Fl-RNA) were conducted at 37° C. in separate tubes, each containing 20 μL total reaction volume—one tube corresponding to one gel lane. A buffer consisting of 20 mM HEPES, 100 mM NaCl, pH 7.4 was used in all experiments. Fl-RNA was heated to 90° C. and allowed to cool to, but not below 37° C. prior to reaction, and the Fl-RNA was immediately added to each pre-incubated tube. Reactants were added to pre-incubated tubes at time-points corresponding to the beginning of each reaction, which were performed in a dark incubator. Reaction start times were staggered and all reactions were quenched at the same time by addition of a quenching/gel-loading buffer solution (80 μL/tube) consisting of standard 1× tris-EDTA-acetic acid buffer, 8M urea, 20 mM HEPES, 100 mM NaCl. The tubes were then heated to 90° C. for 5 min and a 5 μL aliquot from each tube was then loaded into its corresponding lane of a 10% polyacrylamide 8 M urea gel, resulting in […] Fl-RNA per lane. Gel electrophoresis was performed at 250 V for 1.5 h. Gels were analyzed on a GE Typhoon variable mode imager using 488 nm excitation and a 526 nm single pass emission filter. Bands were quantified with the program ImageQuant. Loss of initial Fl-RNA reactant bands were fit to a first-order reaction equation using the software Origin, and observed rate constants and initial rates were determined. Control reactions with respective metal-chelates lacking the Rev domain were conducted in the same manner.
# [6] = tested on: AP-RNA (aminopurine-labeled RRE RNA); experiment: Reaction kinetics monitored by real-time fluorimetry, AP-RNA; type: biochemical, HIV; conditions: 100 nM complex, 100 nM AP-RNA, 1 mM H2O2, 1 mM ascorbate, 37° C.; initial rate
# Description: Reaction Kinetics Monitored by Real-Time Fluorimetry. Reactions of 100 nM metal-chelate-Rev (1:1.2 M:chelate ratio), 1 mM H2O2, 1 mM ascorbate, and 100 nM AP-RNA were conducted at 37° C. in a fluorescence cuvette in a Varian Cary Eclipse fluorescence spectrophotometer. Reactions were monitored using excitation at 310 nm (SW=10 nm) and emission at 371 nm (SW=10 nm). Prior to reaction the AP-RNA was pre-heated to 90° C. for 5 min and then added to the pre-warmed 37° C. cuvette. The metal-chelate-Rev complexes were added after 5 min, and reactions were initiated by the addition of H2O2 and ascorbate after an additional 10 min. Each resulting fluorescence trace was fit to a first-order reaction equation using the software Origin, and observed rate constants and initial rates were determined; the magnitude of fluorescence change that corresponded to complete reaction was established by averaging the magnitudes of fluorescence change from many trials known to react to completion. All concentrations and buffer were identical to those used in the PAGE analysis assay with Fl-RNA. Control reactions with respective metal-chelates lacking the Rev domain were conducted in the same manner.
# pUC19 plasmid DNA = experiment: DNA nicking and linearization nuclease assay; type: biochemical; conditions: 10 μM base pairs pUC19, ascorbate/peroxide; for klin for DNA linearization, with attached Rev (M-chelate-REV) / knick for DNA nicking, with attached Rev (M-chelate-REV): 100 nM M-chelate-Rev; for klin for DNA linearization, without attached Rev (M-chelate) / knick for DNA nicking, without attached Rev (M-chelate): — = Below detection limit
# [7] = Michaelis-Menten, stem-loop IIb RNA as substrate
# [8] = high-affinity RRE RNA site, read-out: KD1
# [9] = low-affinity RRE RNA site, read-out: KD2
# Chain of S. aureus sortase A (Q2FV99 whole entry): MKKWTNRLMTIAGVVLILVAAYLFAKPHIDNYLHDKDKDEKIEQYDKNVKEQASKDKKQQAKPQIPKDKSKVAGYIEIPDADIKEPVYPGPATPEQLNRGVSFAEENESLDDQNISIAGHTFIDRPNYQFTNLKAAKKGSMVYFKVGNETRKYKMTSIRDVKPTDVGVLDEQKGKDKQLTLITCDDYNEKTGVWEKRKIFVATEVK
compound,measurement,setting,value
Cu-GGHGYrFK,IC50,[1],1380 nM
same,CC50,[2],> 100000 nM
Cu-GGHLPETG,IC50,S. aureus sortase A,> 100000 nM
same,activity for catalyst concentration of 1 μM,S. aureus sortase A,0.017
"Cu complex of ATCUN peptide GGHYrFK, C-terminal amidated; targets stem-loop IIb of HCV IRES RNA [Cu-GGHYrFK-amide]",Kd,[3]; change in tyrosine emission at 313 nm,44 ± 2 nM
same,KA,[3]; stem-loop IIb,2.27e+07 M⁻¹
same,Km,[4]; [7],0.85 µM
same,kcat,[4]; [7],0.00883 s⁻¹
same,Vmax,"[4]; cleavage of stem-loop IIb, 100 nM catalyst, 1 mM ascorbate, 1 mM H2O2",1.71 RFU/min
same,turnover number,[4]; stem-loop IIb RNA as substrate,32
same,IC50,[1],580 nM
same,CC50,[2],> 100000 nM
Cu-GGHYrFKGGGYGRKKRRQRRR,IC50,[1],1850 nM
same,CC50,[2],84000 nM
"Cu complex of KGHK-Rev, KGHKTRQARRNRRRRWRERQR-NH2 [Cu-KGHK-Rev]",KA1,HIV RRE RNA (AP-RRE RNA); high-affinity RRE RNA site,7.7 10^8 M^−1
same,Kd,HIV RRE RNA (AP-RRE RNA); [8],1.3 ± 0.5 nM
same,KA2,HIV RRE RNA (AP-RRE RNA); low-affinity RRE RNA site,0.066 10^8 M^−1
same,Kd,HIV RRE RNA (AP-RRE RNA); [9],148 ± 5 nM
same,Fl-RNA Cleavage Rate,[5],0.060 ± 0.005 nM/min
same,AP-RNA Modification Rate,[6],0.511 ± 0.003 nM/min
same,"klin for DNA linearization, with attached Rev (M-chelate-REV)",pUC19 plasmid DNA,0.0062 ± 0.0006 min⁻¹
same,"knick for DNA nicking, with attached Rev (M-chelate-REV)",pUC19 plasmid DNA,0.17 ± 0.04 min⁻¹
O=C([O-])CN(CC(=O)[O-])CC(=O)[O-].[Fe+3] [Fe-NTA],"klin for DNA linearization, without attached Rev (M-chelate)",pUC19 plasmid DNA,0.0008 ± 0.0002 min⁻¹
same,"knick for DNA nicking, without attached Rev (M-chelate)",pUC19 plasmid DNA,0.05 ± 0.01 min⁻¹
"Cu complex of DOTA coupled to K-Rev, Ac-KTRQARRNRRRRWRERQR-NH2 [Cu-DOTA-Rev]",KA1,HIV RRE RNA (AP-RRE RNA); high-affinity RRE RNA site,25 10^8 M^−1
same,Kd,HIV RRE RNA (AP-RRE RNA); [8],0.4 ± 0.1 nM
same,KA2,HIV RRE RNA (AP-RRE RNA); low-affinity RRE RNA site,0.02 10^8 M^−1
same,Kd,HIV RRE RNA (AP-RRE RNA); [9],488 ± 9 nM
same,Fl-RNA Cleavage Rate,[5],0.8 ± 0.1 nM/min
same,AP-RNA Modification Rate,[6],2.8 ± 0.1 nM/min
same,"klin for DNA linearization, with attached Rev (M-chelate-REV)",pUC19 plasmid DNA,0.0025 ± 0.0008 min⁻¹
same,"knick for DNA nicking, with attached Rev (M-chelate-REV)",pUC19 plasmid DNA,0.043 ± 0.007 min⁻¹
Cu-GGHAALEAKICHQIEYYFGDF,IC50,[1],3460 nM
same,CC50,[2],41100 nM
O=C(O)CN(CCN(CC(=O)O)CC(=O)O)CC(=O)O.[Ni] [Ni-EDTA],"klin for DNA linearization, without attached Rev (M-chelate)",pUC19 plasmid DNA,0.00019 ± 0.00002 min⁻¹
same,"knick for DNA nicking, without attached Rev (M-chelate)",pUC19 plasmid DNA,0.037 ± 0.002 min⁻¹
Cu-GGHGLPET,IC50,S. aureus sortase A,> 100000 nM
same,activity for catalyst concentration of 1 μM,S. aureus sortase A,0.027
